US8871794B2, “Small-molecule agonists for type-2 orexin receptor” (Board of Regents, The University of Texas System, priority 2008, dated 2014)
Like-named read-outs stand apart in the source and are kept apart here.

Experiments:
[1] = target: T1, OX2R (Homo sapiens, UniProt O43614); test: CRE reporter assay, OX2R; format: cell-based; set-up: expressed in transfected cells; host or cells: HEK293T cells, transient co-transfection
T1 sequence (O43614 1-444): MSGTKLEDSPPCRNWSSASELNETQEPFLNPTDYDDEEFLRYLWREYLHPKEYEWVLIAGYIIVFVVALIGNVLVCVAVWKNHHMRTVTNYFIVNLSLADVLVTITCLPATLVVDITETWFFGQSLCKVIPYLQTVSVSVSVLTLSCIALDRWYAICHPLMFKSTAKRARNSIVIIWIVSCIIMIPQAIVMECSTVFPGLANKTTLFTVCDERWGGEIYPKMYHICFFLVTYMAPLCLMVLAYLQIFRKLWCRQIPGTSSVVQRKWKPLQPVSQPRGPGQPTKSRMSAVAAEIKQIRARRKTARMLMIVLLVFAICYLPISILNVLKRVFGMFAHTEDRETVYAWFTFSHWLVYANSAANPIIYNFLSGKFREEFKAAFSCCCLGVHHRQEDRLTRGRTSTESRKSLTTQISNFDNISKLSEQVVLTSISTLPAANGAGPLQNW

[2] = Metabolism in mouse CD-1 S9 fractions (phase I, phase I+II); format: in vitro ADME; settings: for half-life at 2 μM: CD-1, mouse, S9 fractions (hepatocyte S9)
Procedure: Metabolism: 2 μM Yan7874 was incubated in 1 ml 0.1 M Tris/0.5% NaHCO3/3 mm MgCl2 solution with 1 mg mouse CD-1 S9 protein (In Vitro Technologies, Baltimore, Md.) at 37° C. Cofactors necessary for phase I and II metabolism were added as recommended by In Vitro Technologies (phase I: 1.7 mg/ml NADP, 7.8 mg/ml glucose-6-phophate, 6 U/ml glucose-6-phosphate dehydrogenase; phase II additionally add 1.9 mg/ml uridine 5′-diphospho-α-D-glucuronic acid and 100 μg/ml 3′-phosphoadenosine-5′-phophosulphate). Protein was precipitated by the addition of 1 volume of methanol. Samples in 50:50 buffer:methanol+0.1% added formic acid were analyzed as follows. An analytical method was developed to detect Yan7874 using LC/MS/MS. […] The fraction of parent compound remaining was plotted over time and a curve fit to the data. The time at which 50% of compound remains is designated the in vitro half-life.

[3] = target: T1, OX2R; test: Intracellular Calcium Transient Assay in OX2R-expressing CHO cells; format: cell-based; set-up: expressed in transfected cells
Procedure: DNA Construction: Open reading frames of OX1R, OX2R and GRP (control) receptor were inserted into a bicistronic retrovirus expression vector, pMXs-IRES-puror (pMXs-IP), which carried a FLAG™ epitope cDNA sequence at the beginning of the ORF sequences encoding their human polypeptides.
Transfection and retrovirus production: Transfection was carried out using FuGENE 6 (Roche Diagnostics Corp.) according to the manufacturer's recommendations. Retroviruse fluid was harvested after 48 hours post transfection.
Cell lines: To generate receptor expressing cells, CHO cells harboring ecotropic retroviral receptor were infected with a retroviral supernatant. After 24 hours post infection, the retrovirus supernatant was removed and infected cells were selected with 10 μg/ml of puromycin (Sigma-Aldrich, St. Louis, Mo.). […]
0.5 ml aliquot of the cell suspension was stimulated by addition of 5 μl of compound dissolved in DMSO. Changes of [Ca^2+]i transients in cells were measured at RT by using CAF-110 Intracellular Ion Analyser (JASCO, Tokyo) with the excitation wave lengths of 340 nm and 380 nm and emission wavelength of 500 nm

## Cc1ccc(Cn2c(=N)n(CC(O)c3ccc(Cl)c(Cl)c3)c3ccccc32)cc1 (stereo not drawn) [Compound 130699]
[1]
  reporter activation in a distinct CRE reporter system: confirmed reporter activation
[1]; CRE reporter
  Fold Induction, OX2R_CRE: 5.1935
[2]; 2 μM, mouse CD-1 S9, 37° C.
  stability in vitro using hepatocyte S9 fractions: relatively stable
[2]; Phase I+II, read-out: half-life for in vitro combined Phase I+II metabolism in S9 fractions
  half-life at 2 μM: 0.933 h
[2]; Phase I, read-out: half-life for in vitro Phase I metabolism in S9 fractions
  half-life at 2 μM: 1.13 h
[3]
  Ca2+ response: robust Ca2+ response
